Test results taken from patent US4438109A, “Tylosin derivatives” (Zaidan Hojin Biseibutsu Kagaku Kenkyu Kai, priority 1980, dated 1984).
Values after ≈ are worked out from the molar mass of the structure shown. Like-named read-outs stand apart in the source and are kept apart here.

Legend:
Experiment in all cases: minimum inhibition concentration (MIC)
Assay type in all cases: cell-based
Kleb. pneumoniae PCI 602 = settings: Klebsiella pneumoniae, PCI602
Description: (§1) Regarding the antimicrobial activity of the tylosin derivatives of this invention shown by formula I, the minimum inhibition concentration (MIC) is shown in Table I.

Ataph. aureus MS 9861 = tested on: Ataph. aureus MS 9861
Description: as §1

E. coli NIHJ = settings: Escherichia coli
Description: as §1

B. subtilis NRRL B-558 = settings: Bacillus subtilis, NRRLB558
Description: as §1

Sal. enteritidis 1891 = settings: Salmonella enterica
Description: as §1

Sh. dysenteriae JS 11910 = settings: Shigella dysenteriae, JS11910
Description: as §1

Staph. aureus MS 10225 = settings: Staphylococcus aureus, MS10225
Description: as §1

Staph. aureus 209 P = settings: Staphylococcus aureus
Description: as §1

[1] = Kleb. pneumoniae PCI 602, read-out: MIC
[2] = B. subtilis NRRL B-558, read-out: MIC
[3] = Sal. enteritidis 1891, read-out: MIC
[4] = Staph. aureus 209 P, read-out: MIC

Structure (SMILES) | MIC (Kleb. pneumoniae PCI 602; [1]) | MIC (Ataph. aureus MS 9861) | MIC (E. coli NIHJ) | MIC (B. subtilis NRRL B-558; [2]) | MIC (Sal. enteritidis 1891; [3]) | MIC (Sh. dysenteriae JS 11910) | MIC (Staph. aureus MS 10225) | MIC (Staph. aureus 209 P; 209P) | MIC (B. subtilis NRRL B-558) | MIC (Sal. enteritidis 1891; ENTERITIDIS) | MIC (Kleb. pneumoniae PCI 602) | MIC (E. coli NIHJ; E. coli NIHJ, read-out: MIC) | MIC (Staph. aureus 209 P; [4])
CCC1OC(=O)CC(O)C(C)C(OC2OC(C)CC(N(C)C)C2O)C(CC=O)CC(C)C(=O)C=CC(C)=CC1CO (centres unmarked) [Example 2, 4'-deoxy mycaminosyl tylonolide] | 0.78 µg/mL (≈ 1.34 µM) | 3.12 µg/mL (≈ 5.36 µM) | 3.12 µg/mL (≈ 5.36 µM) | 0.78 µg/mL (≈ 1.34 µM) | 0.78 µg/mL (≈ 1.34 µM) | < 0.2 µg/mL | 3.12 µg/mL (≈ 5.36 µM) | 0.2 µg/mL (≈ 0.344 µM) |  |  |  |  | 
CCC1OC(=O)CC(O)C(C)C(OC2OC(C)CC(N(C)C)C2O)C(CC=O)CC(C)C(=O)C=CC(C)=CC1COC(C)=O (centres unmarked) [Example 9, 23-O-acetyl-4'-deoxy mycaminosyl tylonolide] | 6.25 µg/mL (≈ 10 µM) | 1.56 µg/mL (≈ 2.5 µM) | 6.25 µg/mL (≈ 10 µM) |  |  | 0.78 µg/mL (≈ 1.25 µM) | 0.78 µg/mL (≈ 1.25 µM) | 0.2 µg/mL (≈ 0.321 µM) | 0.39 µg/mL (≈ 0.625 µM) | 1.56 µg/mL (≈ 2.5 µM) |  |  | 
CCC(=O)OCC1C=C(C)C=CC(=O)C(C)CC(CC=O)C(OC2OC(C)CC(N(C)C)C2O)C(C)C(O)CC(=O)OC1CC (centres unmarked) [Example 10, 23-O-propionyl-4'-deoxy mycaminosyl tylonolide] |  | 3.12 µg/mL (≈ 4.89 µM) |  |  | 0.78 µg/mL (≈ 1.22 µM) | 0.2 µg/mL (≈ 0.314 µM) | 0.2 µg/mL (≈ 0.314 µM) |  | < 0.2 µg/mL |  | 1.56 µg/mL (≈ 2.45 µM) | 6.25 µg/mL (≈ 9.8 µM) | 0.2 µg/mL (≈ 0.314 µM)
CCC1OC(=O)CC(O)C(C)C(OC2OC(C)CC(N(C)C)C2O)C(CC=O)CC(C)C(=O)C=CC(C)=CC1COC1CCCS1 (centres unmarked) [Example 18, 23-O-tetrahydrothiofuranyl-4'-deoxy mycaminosyl tylonolide] | 1.56 µg/mL (≈ 2.34 µM) | 0.2 µg/mL (≈ 0.299 µM) |  |  | 1.56 µg/mL (≈ 2.34 µM) | 0.39 µg/mL (≈ 0.584 µM) | 0.2 µg/mL (≈ 0.299 µM) |  | < 0.2 µg/mL |  |  | 6.25 µg/mL (≈ 9.36 µM) | < 0.2 µg/mL
CCC1OC(=O)CC(O)C(C)C(OC2OC(C)CC(N(C)C)C2O)C(CC=O)CC(C)C(=O)C=CC(C)=CC1COC1CCCCS1 (centres unmarked) [Example 19, 23-O-tetrahydrothiopyranyl-4'-deoxy mycaminosyl tylonolide] |  | < 0.2 µg/mL |  |  | 1.56 µg/mL (≈ 2.29 µM) | 0.39 µg/mL (≈ 0.572 µM) | < 0.2 µg/mL |  | < 0.2 µg/mL |  | 3.12 µg/mL (≈ 4.58 µM) | 25 µg/mL (≈ 36.7 µM) | < 0.2 µg/mL
CCC1OC(=O)CC(O)C(C)C(OC2OC(C)CC(N(C)C)C2O)C(CC=O)CC(C)C(=O)C=CC(C)=CC1COCSC (centres unmarked) [Example 20, 23-O-methylthiomethyl-4'-deoxy mycaminosyl tylonolide] | 1.56 µg/mL (≈ 2.43 µM) | 3.12 µg/mL (≈ 4.86 µM) |  | < 0.2 µg/mL | 0.78 µg/mL (≈ 1.22 µM) | 0.78 µg/mL (≈ 1.22 µM) | 0.78 µg/mL (≈ 1.22 µM) |  |  |  |  | 6.25 µg/mL (≈ 9.74 µM) | < 0.2 µg/mL
CCC1OC(=O)CC(O)C(C)C(OC2OC(C)CC(N(C)C)C2O)C(CC=O)CC(C)C(=O)C=CC(C)=CC1CCl (centres unmarked) [Example 21, 23-chloro-23,4'-dideoxy mycaminosyl tylonolide] | 1.56 µg/mL (≈ 2.6 µM) | 6.25 µg/mL (≈ 10.4 µM) |  | 0.2 µg/mL (≈ 0.333 µM) | 0.39 µg/mL (≈ 0.65 µM) | 0.39 µg/mL (≈ 0.65 µM) | 6.25 µg/mL (≈ 10.4 µM) |  |  |  |  | 6.25 µg/mL (≈ 10.4 µM) | 0.78 µg/mL (≈ 1.3 µM)
CCC1OC(=O)CC(O)C(C)C(OC2OC(C)CC(N(C)C)C2O)C(CC=O)CC(C)C(=O)C=CC(C)=CC1CSc1ccccn1 (centres unmarked) [Example 27, 23,4'-dideoxy-23-(pyridine-2-ylthio) mycaminosyl tylonolide] | 1.56 µg/mL (≈ 2.31 µM) | 0.78 µg/mL (≈ 1.16 µM) | 12.5 µg/mL (≈ 18.5 µM) | < 0.2 µg/mL | 0.78 µg/mL (≈ 1.16 µM) | 0.2 µg/mL (≈ 0.296 µM) | 0.39 µg/mL (≈ 0.578 µM) |  |  |  |  |  | < 0.2 µg/mL
CC[C@H]1OC(=O)C[C@@H](O)[C@H](C)[C@@H](O[C@@H]2O[C@H](C)[C@@H](O[C@H]3C[C@@](C)(O)[C@@H](O)[C@H](C)O3)[C@H](N(C)C)[C@H]2O)[C@@H](CC=O)C[C@@H](C)C(=O)/C=C/C(C)=C/[C@@H]1CO[C@@H]1O[C@H](C)[C@@H](O)[C@@H](OC)[C@H]1OC [Tylosin] | 25 µg/mL (≈ 27.3 µM) | 6.25 µg/mL (≈ 6.82 µM) | 100 µg/mL (≈ 109 µM) |  | 25 µg/mL (≈ 27.3 µM) | 12.5 µg/mL (≈ 13.6 µM) | 3.12 µg/mL (≈ 3.41 µM) | 0.39 µg/mL (≈ 0.426 µM) |  |  |  |  | 
